Data taken from ChEMBL document CHEMBL6096710, “Re-evaluation of Cyclic Peptide Binding to Neurotensin Receptor 1 by Shifting the Peptide Register during Synthesis” (ACS Med Chem Lett, 2025).
Square brackets hold non-standard residues; d marks the D form. Peptide text beside a SMILES is read from it. NMeR = CN[C@@H](CCCNC(=N)N)C(=O)O; Tle = CC(C)(C)[C@H](N)C(=O)O

Experiments:
[1] = Displacement of FAM-NT8-13 from rat NTSR1 stably expressed in HEK293F cells incubated for 1 hr under dark condition by mCherry fluorophore based competition binding assay; format: cell-based
[2] = target: Neurotensin receptor type 1 (Homo sapiens, UniProt P30989); test: Inhibition of NTSR1 (unknown origin)
Sequence of Neurotensin receptor type 1 (P30989 whole entry): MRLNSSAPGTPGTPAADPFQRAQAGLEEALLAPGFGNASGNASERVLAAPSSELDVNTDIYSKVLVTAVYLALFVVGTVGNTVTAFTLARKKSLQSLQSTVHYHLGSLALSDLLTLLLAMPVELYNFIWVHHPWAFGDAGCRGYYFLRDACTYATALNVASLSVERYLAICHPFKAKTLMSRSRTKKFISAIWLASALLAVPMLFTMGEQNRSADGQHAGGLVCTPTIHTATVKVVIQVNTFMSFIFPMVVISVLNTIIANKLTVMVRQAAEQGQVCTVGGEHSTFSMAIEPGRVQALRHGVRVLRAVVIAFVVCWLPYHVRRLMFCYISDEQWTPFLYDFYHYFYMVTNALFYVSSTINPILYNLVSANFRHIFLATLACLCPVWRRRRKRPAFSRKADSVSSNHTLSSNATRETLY

SMILES | pKi [1] | Ki [1] | Ki [2]
CC(C)C[C@H](NC(=O)[C@@H](N)C(C)(C)C)C(=O)N[C@@H](CCCNC(=N)N)C(=O)N[C@@H](CCCCN)C(=O)N1CCC[C@H]1C(=O)N[C@@H](Cc1ccc(O)cc1)C(=O)O (H-[Tle]LRKPY-OH) | < 4 | – | –
CC(C)C[C@H](NC(=O)[C@@H](NC(=O)[C@H](Cc1ccc(O)cc1)NC(=O)[C@@H]1CCCN1C(=O)[C@H](CCCCN)NC(=O)[C@@H](N)CCCNC(=N)N)C(C)(C)C)C(=O)O (H-RKPY[Tle]L-OH) | 7.32 | 47.9 nM | –
CC(C)C[C@@H]1NC(=O)[C@H](C(C)(C)C)NC(=O)[C@H](Cc2ccc(O)cc2)NC(=O)[C@@H]2CCCN2C(=O)[C@H](CCCCN)NC(=O)[C@H](CCCNC(=N)N)NC1=O (cyclo(KPY[Tle]LR)) | < 4 | 1480 nM | 1070 nM
CN[C@@H](CCCNC(=N)N)C(=O)N[C@@H](CCCCN)C(=O)N1CCC[C@H]1C(=O)N[C@@H](Cc1c[nH]c2ccccc12)C(=O)N[C@H](C(=O)N[C@@H](CC(C)C)C(=O)O)C(C)(C)C (H-[NMeR]KPW[Tle]L-OH) | – | – | 5.37 nM
